Assay results: patent publication EP4775570A1, “CYP11A1 INHIBITOR, PREPARATION METHOD THEREFOR AND USE THEREOF” (Shenzhen Zhongge Biological Technology Co., Ltd., priority 2023, dated 2025)

Tested on: VCaP castration-resistant prostate cancer subcutaneous transplant tumor model
Experiment: In vivo pharmacodynamic study in a VCaP castration-resistant prostate cancer subcutaneous transplant tumor model
Design: species or system SCID-Beige mice
Conditions: 30mg/kg BID oral + prednisone 0.6mg/kg QD; for tumor inhibitory activity (in words): compared with ODM-208
Experimental: Animals: experimental male SCID-Beige mice, 6-8-weeks old or 18-22g, provided by Beijing Vital River Laboratory Animal Technology Co., Ltd.
Experiment procedures: all experimental animals were kept within specific-pathogen-free animal barrier facility, and allowed 3 days of adaptation before the experiment began. VCaP tumor cells were in vitro cultured as monolayer in DMEM complete medium (with 10% fetal bovine serum and 1% penicillin & streptomycin) at 37°C in air containing 5% CO2. Tumor cells were routinely passaged 2-3 times a week, and cells in exponential growth phase were collected and counted for tumor cell inoculation. 10x10^6 VCaP tumor cells were resuspended in 0.1ml PBS, thoroughly mixed with 0.1ml matrigel, and then inoculated subcutaneously on the right flank of each mouse to form a tumor. The tumor-bearing mice were allowed to develop to an average tumor volume of around 200mm^3 and underwent castration surgery. The tumor volumes of all mice were measured after one week of castration surgery. Suitable tumor-bearing mice were selected and assigned randomly into the following groups: blank control group, prednisone (0.6mg/kg, QD) group, abiraterone (33.73mg/kg, QD) + prednisone (0.6mg/kg, QD) group, ODM-208 (30mg/kg, BID) + prednisone (0.6mg/kg, QD) group, and the compound of the present disclosure (30mg/kg, BID) + prednisone (0.6mg/kg, QD) group. Animals in blank control group were orally administered with vehicles (0.5%MC+0.5%Tween80 and 0.5%CMCNa), and the animals in other groups were orally administered with corresponding compound. The experiment lasted for 32 days, and during the experiment, the animals in each group were measured for tumor volume and body weight twice a week.

| weight loss (in words) | animal weight loss (32 days) [%] | Compound | tumor inhibitory activity (in words) | tumor inhibition rate TGI (castrated tumor-bearing mice, 32 days) [%] |
| --- | --- | --- | --- | --- |
| without significant weight loss | – | Cn1c(CN2Cc3ccccc3C2)c(F)cc(CCC2CCN(S(C)(=O)=O)CC2)c1=O [compound 72] | significantly better than ODM-208 | – |
| without significant weight loss | -2 | COc1cc(CN2Cc3ccccc3C2)ccc1CCC1CCN(S(C)(=O)=O)CC1 [compound 53] | significantly better than ODM-208 | 112 |
